How the values were obtained:
[1] = system: activated sludge; assay: Activated sludge SBR reactor, biological nitrogen removal with added AHLs signal molecule
Procedure: A system to be treated was cooled to 10° C., and an activated sludge SBR reactor was adopted with an effective volume of 1 L and an MLSS of 4,000 mg/L.
Incoming influent: COD: 250 mg/L, ammonia-nitrogen concentration (NH4^+—N): 30 mg/L, TP: 1.5 mg/L, pH=7-8.
12 h was an operation cycle, including 2.5 h of anoxic phase, 8 h of aerobic phase, and 1.5 h of standing. The anoxic phase had dissolved oxygen (DO) maintained below 0.5 mg/L, and the aerobic phase had DO>2.5 mg/L.
An N-butanoyl-homoserine lactone stock solution with a concentration of 10 mg/L, which was added every 2 operation cycles following the influent.
This example differed from Example 1 in that the treatment system was cooled to 7° C., and after the operation was stable, the water temperature was further lowered to 4° C.

[2] = system: microbial community of the activated sludge; assay: High-throughput sequencing / metagenomics of SBR activated sludge (microbial community and functional genes); details: for relative content of Nakamurella (nitrifying bacteria): 17.46% without
Procedure: After the treatment effect was stable, high-throughput sequencing was conducted on the activated sludge to analyze a composition of the microbial community. […] The increased abundance of functional bacteria and functional genes in the activated sludge SBR reactor improved the nitrogen removal effect of this reactor.

[3] = system: activated sludge-biofilm composite system; assay: Activated sludge-biofilm composite MBBR reactor at 6° C., pollutant removal efficiency
Procedure: (2) The hydraulic retention time was 20 h, and an effluent from the reactor was collected to detect the pollutant removal efficiency. After a short period of adaptation, the COD concentration in the reactor effluent dropped below 50 mg/L, and the removal efficiency was always maintained at 85%. After adding the C4-HSL, the nitrogen removal effect gradually became more prominent. On the 16th day, the effluent ammonia-nitrogen concentration dropped below 8 mg/L (a maximum allowable emission concentration of ammonia-nitrogen from most urban sewage treatment plants at a water temperature of below 12° C.) to 6.77 mg/L, and the removal efficiency was 71.86%. On the 51st day, the ammonia-nitrogen concentration in the effluent dropped to almost 0, and the removal efficiency was greater than 99%.
There were three stages: increasing COD from 160 mg/L to 500 mg/L (260, 400, 500 mg/L); increasing ammonia-nitrogen concentration from 25 mg/L to 75 mg/L (40, 65, 75 mg/L); increasing TP from 2 mg/L to 8.5 mg/L (4, 6, 8.5 mg/L).
(§1) The C4-HSL with a concentration of 100 μg/L was added to the influent. The rest steps were the same as those in Example 5.

[4] = system: activated sludge and biofilm phases; assay: EPS and ATP of the activated sludge and biofilm phases of the MBBR
Procedure: The EPS concentration in the sludge phase was 46.12±4.8 mg/g·VSS, and the intracellular ATP was 1273.11±5.4 ngATP/mL; the EPS concentration in the biofilm phase was 53.34±3.7 mg/g. VSS, and the microbial activity concentration of a single filler was 20.67±0.22 ngATP/piece.

[5] = system: biofilm on the filler; assay: Single biofilm MBBR at low temperature (sludge discharged on 18th day), pollutant removal and community structure
Procedure: as §1
The hydraulic retention time was 18 h, the rest steps were the same as those Example 1, and the COD removal efficiency was 85%; after the reactor was drained of sludge, the nitrification effect dropped sharply.

[6] = system: biofilm / quorum quenching bacteria; assay: Biofilm MBBR reactor at 22° C., microbial community structure; details: 100 μg/L
Procedure: The sludge was discharged on the 12th day after the biofilm was successfully formed on the filler. The C4-HSL with a concentration of 100 μg/L was added to the influent. The rest steps were the same as those in Example 5.
The high concentration of C4-HSL allowed the quorum quenching bacteria to grow at a suitable temperature (22±1° C.), stimulating quorum quenching and inhibiting the attachment and growth of microorganisms to the filler.

[7] = system: activated sludge; assay: Activated sludge SBR reactor, biological nitrogen removal with added AHLs signal molecule; details: for MLSS lower than that of the control group (without C4-HSL added): 4° C.; for MLSS of the reactor lower than that of the control group (without C4-HSL): after stable operation
[8] = system: activated sludge-biofilm composite system; assay: Activated sludge-biofilm composite MBBR reactor at 6° C., pollutant removal efficiency; details: 100 μg/L, HRT 18 h
[9] = 40 μg/L, 6° C., after treatment effect stable
[10] = 100 μg/L, 6° C., after treatment effect stable
[11] = 100 μg/L, after raising influent in three stages
[12] = 100 μg/L, after reactor drained of sludge
[13] = room temperature, 0, 10, 100 μg/L, after 74 cycles

CCCC(=O)N[C@H]1CCOC1=O [C4-HSL, N-butanoyl-L-homoserine lactone]
average NH4+—N removal efficiency ([1]; 10 μg/L, 4° C. (Example 3)): 99.3%
MLSS lower than that of the control group (without C4-HSL added) ([1]; 10 μg/L, 7° C.): 22%
average NH4+—N removal efficiency ([1]; 10 μg/L, 7° C., after stabilization (Example 3)): 96.9%
MLSS lower than that of the control group (without C4-HSL added) ([1]; 100 μg/L, 7° C.): 19%
average NH4+—N removal efficiency ([1]; 100 μg/L, 7° C., after stabilization (Example 4)): 96.3%
abundance of CS gene (TCA cycle) ([2]; 10 μg/L, 10° C.): 0.017%
abundance of complete nitrifying bacterium Nitrospira ([2]; 10 μg/L, 10° C.): 0.100%
abundance of decomposition genes related to QS ([2]; 10 μg/L, 10° C.): 1.92%
abundance of denitrifying bacterium Dechloromonas ([2]; 10 μg/L, 10° C.): 0.246%
abundance of denitrifying bacterium Denitratisoma ([2]; 10 μg/L, 10° C.): 0.189%
abundance of fum gene (TCA cycle) ([2]; 10 μg/L, 10° C.): 0.018%
abundance of regulatory genes related to QS ([2]; 10 μg/L, 10° C.): 2.40%
abundance of sdh gene (TCA cycle) ([2]; 10 μg/L, 10° C.): 0.030%
abundance of transport genes related to QS ([2]; 10 μg/L, 10° C.): 7.75%
abundance of ammonia-oxidizing bacterium MND1 ([2]; 10 μg/L, 10° C. (Example 1)): 0.007%
share of complete nitrification process in nitrogen metabolism ([2]; 10 μg/L, 10° C., metagenomic): 12.53%
abundance of CS gene (TCA cycle) ([2]; 100 μg/L, 10° C.): 0.021%
abundance of Nitrospira ([2]; 100 μg/L, 10° C.): 0.222%
abundance of ammonia-oxidizing bacterium MND1 ([2]; 100 μg/L, 10° C.): 0.005%
abundance of decomposition genes related to QS ([2]; 100 μg/L, 10° C.): 2.50%
abundance of fum gene (TCA cycle) ([2]; 100 μg/L, 10° C.): 0.021%
abundance of heterotrophic nitrifying-aerobic denitrifying bacterium (Microbacterium) ([2]; 100 μg/L, 10° C.): 0.463%
abundance of mdh gene (TCA cycle) ([2]; 100 μg/L, 10° C.): 0.011%
abundance of nitrification gene nxr ([2]; 100 μg/L, 10° C.): 0.027%
abundance of nitrogen removal gene nirK ([2]; 100 μg/L, 10° C.): 0.015%
abundance of regulatory genes related to QS ([2]; 100 μg/L, 10° C.): 2.98%
abundance of sdh gene (TCA cycle) ([2]; 100 μg/L, 10° C.): 0.040%
abundance of transport genes related to QS ([2]; 100 μg/L, 10° C.): 9.22%
share of complete nitrification process in nitrogen metabolism ([2]; 100 μg/L, 10° C.): 13.82%
total abundance of 11 species of denitrifying bacteria ([2]; 100 μg/L, 10° C.): 16.53%
abundance of ammonia-oxidizing bacterium Ellin6067 ([2]; 100 μg/L, 10° C. (Example 2)): 0.393%
relative abundance of Arthrobacter, Nakamurella, Micrococcaceae and Nitrosomonas ([2]; 4° C., after system stable): promoted the increase
relative abundance of TM7a, Nakamurella, Tessaracoccus and Ferruginibacter ([2]; 7° C., after system stabilized): increased
effect on Actinobacteriota and Gemmatimonadota ([2]; room temperature): inhibition at low concentrations and promotion at high concentrations
relative content of Nakamurella (nitrifying bacteria) ([2]; room temperature, high-concentration C4-HSL): 20.79%
relative content of Nakamurella (nitrifying bacteria) ([2]; room temperature, low-concentration C4-HSL): 16.66%
growth and reproduction of Patescibacteria ([2]; room temperature, effect increased with concentration): promote
growth of Proteobacteria and Bacteroidota (phylum level) ([2]; room temperature, stronger at higher concentration): inhibited
ammonia-nitrogen removal efficiency ([3]; 40 μg/L, 6° C., 16th day): 71.86%
effluent ammonia-nitrogen concentration ([3]; 40 μg/L, 6° C., 16th day, influent 25 mg/L): 6.77 mg/L
ammonia-nitrogen concentration in the effluent ([3]; 40 μg/L, 6° C., 51st day): ~0
ammonia-nitrogen removal efficiency ([3]; 40 μg/L, 6° C., 51st day): greater than 99%
COD removal efficiency ([3]; 40 μg/L, 6° C., HRT 20 h): 85%
COD concentration in the reactor effluent ([3]; 40 μg/L, 6° C., HRT 20 h, influent COD 160 mg/L (Example 5)): below 50 mg/L
effluent COD concentration ([3]; 40 μg/L, 6° C., third stage influent COD 500, ammonia-nitrogen 75, TP 8.5 mg/L, 234th day): below 50 mg/L
TN removal efficiency ([3]; 40 μg/L, third stage influent): not less than 80%
effluent total nitrogen (TN) concentration ([3]; 40 μg/L, third stage influent): 12 mg/L
COD removal efficiency ([3]; 40 μg/L, third stage influent, 234th day): 95%
effluent ammonia-nitrogen removal efficiency ([3]; 100 μg/L, after raising influent in three stages (COD 500, ammonia-nitrogen 75, TP 8.5 mg/L)): not less than 99%
EPS concentration in the biofilm phase [4, 9]: 53.34±3.7 mg/g. VSS
EPS concentration in the sludge phase [4, 9]: 46.12±4.8 mg/g·VSS
intracellular ATP (sludge phase) [4, 9]: 1273.11±5.4 ngATP/mL
microbial activity concentration of a single filler [4, 9]: 20.67±0.22 ngATP/piece
EPS concentration in the activated sludge phase ([4]; 40 μg/L, third stage influent): 127.07±4.5 mg/g·VSS
EPS concentration in the biofilm phase ([4]; 40 μg/L, third stage influent): 113.70±2.59 mg/g. VSS
intracellular ATP (sludge phase) ([4]; 40 μg/L, third stage influent): 1709.78±4.1 ngATP/mL
microbial activity concentration of a single filler ([4]; 40 μg/L, third stage influent): 113.99±0.67 ngATP/mL
EPS concentration in activated sludge phase [4, 10]: 80.62±3.1 mg/g·VSS
EPS concentration in biofilm phase [4, 10]: 96.74±2.8 mg/g·VSS
intracellular ATP (sludge phase) [4, 10]: 2441.01±7.2 ngATP/mL
microbial activity concentration of a single filler [4, 10]: 26.56±0.42 ngATP/piece
EPS concentration in activated sludge phase [4, 11]: 380.38±5.7 mg/g·VSS
EPS concentration in biofilm phase [4, 11]: 235.18±3.5 mg/g·VSS
intracellular ATP (sludge phase) [4, 11]: 5868.42±8.9 ngATP/mL
microbial activity concentration of a single filler [4, 11]: 113.99±0.67 ngATP/mL
COD removal efficiency ([5]; 100 μg/L, HRT 18 h, sludge discharged on 18th day (Comparative Example 7)): 85%
ammonia-nitrogen removal efficiency [5, 12]: 40%
effluent ammonia-nitrogen concentration [5, 12]: 12 mg/L
growth and enrichment of Bacteroidetes and Actinobacteria on the filler ([5]; low temperature conditions): beneficial to promote the growth and enrichment
nitrification effect of a single biofilm system ([5]; low temperature, single biofilm system): could not quickly improve
colonization and growth of biofilm ([6]; 22° C.): inhibited
growth of quorum quenching bacteria ([6]; 22° C. (Comparative Example 8)): promoted
COD removal efficiency ([7]; 10 μg/L added every 2 cycles, 10° C. (Example 1)): 90%
MLSS lower than that of the control group (without C4-HSL added) ([7]; 10 μg/L): 40%
TN average effluent concentration ([7]; 10 μg/L, 10° C. (Example 1)): 11.40 mg/L
average NH4+—N removal efficiency ([7]; 10 μg/L, 10° C. (Example 1)): 99.69%
cycles after which TN removal efficiency reached stability ([7]; 10 μg/L, 10° C. (Example 1)): 27 cycles
TN average removal efficiency ([7]; 10 μg/L, 10° C., after stability (Example 1)): 64.97%
MLSS of the reactor lower than that of the control group (without C4-HSL) ([7]; 10 μg/L, 10° C.): 2%
MLSS lower than that of the control group (without C4-HSL added) ([7]; 100 μg/L): 38%
average NH4+—N removal efficiency ([7]; 100 μg/L, 4° C. (Example 4)): 98.8%
TN average effluent concentration ([7]; 100 μg/L, 10° C.): 12.86 mg/L
cycles after which TN removal efficiency reached stability ([7]; 100 μg/L, 10° C.): 27 cycles
COD removal efficiency ([7]; 100 μg/L, 10° C. (Example 2)): 90%
average NH4+—N removal efficiency ([7]; 100 μg/L, 10° C. (Example 2)): 99.85%
TN average removal efficiency ([7]; 100 μg/L, 10° C., after stability): 60.46%
MLSS of the reactor lower than that of the control group (without C4-HSL) ([7]; 100 μg/L, 10° C.): 12%
TN removal efficiency and NH4+—N removal efficiency compared with not adding C4-HSL ([7]; low temperatures, Example 1 vs Comparative Example 1, FIG. 1 and 2): significantly improved
effect of adding C4-HSL on the nitrogen removal effect ([7]; room temperature): little effect
ammonia-nitrogen removal efficiency [7, 13]: not less than 99%
effluent TN [7, 13]: not more than 15 mg/L
effluent ammonia-nitrogen concentration [7, 13]: around 0.1 mg/L
removal efficiency of COD [7, 13]: not less than 90%
ammonia-nitrogen removal efficiency ([8]; 5th day): 77.43%
effluent ammonia-nitrogen concentration ([8]; 5th day (Example 6)): 5.85 mg/L
ammonia-nitrogen removal efficiency ([8]; 12th day): greater than 99%

CCCCCC(=O)N[C@H]1CCOC1=O [C6-HSL, N-hexanoyl-L-homoserine lactone]
ammonia-nitrogen removal efficiency ([7]; 10 μg/L after addition, remaining steps as Example 1 (10° C.)): 82.34%
ammonia-nitrogen removal efficiency ([7]; 100 μg/L after addition, remaining steps as Example 1 (10° C.)): 84.29%
